Experimental data published in patent US20260125375A1 (Pfizer Inc., priority 2022, published 2026).

What was measured:
WT CBL-B (36-427) = molecular target: T1, WT CBL-B (36-427) (Homo sapiens, UniProt Q13191); experiment: Surface Plasmon Resonance (SPR) assay, binding affinity and kinetics, CBL-B; conditions: SPR at 10° C., biotinylated WT CBL-B (36-427) on streptavidin chip; geometric mean; read-out: CBL-B SPR Kd (nM) GMean
T1 construct: N-terminal biotinylated WT CBL-B (36-427) and C-CBL (46-435) were captured on a streptavidin (SA) coated sensor chip
Method in brief: (§1)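 SPR kinetics at 10° C, run either single-cycle (0.001–1 μM, 3-fold, 6 points, 120 s on, >5400 s off) or multi-cycle (10 points, 2-fold, top 10 or 100 μM, 90 s on). Proteins were N-biotinylated CBL-B (36-427) and C-CBL (46-435) on SA surfaces, in pH 7.2 HEPES, 2% DMSO.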

C-CBL (residues 46-435) = molecular target: T2, C-CBL (residues 46-435) (Homo sapiens, UniProt P22681); experiment: Ligand Displacement Assay (LDA), HTRF competitive binding against BODIPY-labeled fluorescent tracer, C-CBL; conditions: geometric mean of the number of tests, read-out: C-CBL Ki (nM) GMean
T2 construct: Purified CBL-B (residues 36-427) and C-CBL (residues 46-435) proteins from baculovirus-infected insect cells; made in house; host or cells: baculovirus-infected insect cells
T2 sequence (P22681 46-435): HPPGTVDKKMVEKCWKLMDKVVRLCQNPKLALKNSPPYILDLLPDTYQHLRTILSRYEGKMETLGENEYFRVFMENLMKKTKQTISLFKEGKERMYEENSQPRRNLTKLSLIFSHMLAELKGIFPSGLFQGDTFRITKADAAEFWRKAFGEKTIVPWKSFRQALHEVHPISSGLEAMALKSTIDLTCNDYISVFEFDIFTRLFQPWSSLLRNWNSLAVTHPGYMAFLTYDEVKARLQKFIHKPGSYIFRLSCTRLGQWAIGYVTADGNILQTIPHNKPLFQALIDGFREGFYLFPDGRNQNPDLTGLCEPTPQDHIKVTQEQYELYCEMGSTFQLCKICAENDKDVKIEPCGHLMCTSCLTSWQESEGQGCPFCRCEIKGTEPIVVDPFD
Method in brief: (§2)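 Terbium-streptavidin donor on BirA-biotinylated, AviTagged protein from baculovirus-infected insect cells; BODIPY tracer as acceptor. Compound titrations were three-fold and duplicated, […] with 2% DMSO final.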

C-CBL (46-435) = molecular target: T3, C-CBL (46-435) (Homo sapiens, UniProt P22681); experiment: Surface Plasmon Resonance (SPR) assay, binding affinity and kinetics, C-CBL; conditions: SPR at 10° C., biotinylated C-CBL (46-435) on streptavidin chip; geometric mean; read-out: C-CBL SPR Kd (nM) GMean
T3 construct: N-terminal biotinylated WT CBL-B (36-427) and C-CBL (46-435) were captured on a streptavidin (SA) coated sensor chip
T3 sequence (P22681 46-435): T2 sequence (P22681 46-435)
Method in brief: as §1

CBL-B (residues 36-427) = molecular target: T4, CBL-B (residues 36-427) (Homo sapiens, UniProt Q13191); experiment: Ligand Displacement Assay (LDA), HTRF competitive binding against BODIPY-labeled fluorescent tracer, CBL-B; conditions: geometric mean of the number of tests, read-out: CBL-B Ki (nM) GMean
T4 construct: Purified CBL-B (residues 36-427) and C-CBL (residues 46-435) proteins from baculovirus-infected insect cells; made in house; host or cells: baculovirus-infected insect cells
Method in brief: as §2

Row | Compound | Kd (WT CBL-B (36-427)) [nM] | Ki (C-CBL (residues 46-435)) [nM] | Kd (C-CBL (46-435)) [nM] | Ki (CBL-B (residues 36-427)) [nM]
1 | Cn1cnnc1[C@@H](c1cccc(-c2n[nH]c3c(CN4C[C@@H](F)[C@@H](F)C4)nc(C(F)(F)F)cc23)c1)C1CCC1 [Example C107, 3-{3-[(R)-cyclobutyl(4-methyl-4H-1,2,4-triazol-3-yl)methyl]phenyl}-7-{[(3R,4S)-3,4-difluoropyrrolidin-1-yl]methyl}-5-(trifluoromethyl)-1H-pyrazolo[3,4-c]pyridine] | 3.7 | 363 | 158 | 33.9
2 | C[C@@H]1CCCN(Cc2nc(C(F)(F)F)cc3c(-c4cccc([C@H](c5nncn5C)C5CCC5)c4)n[nH]c23)C1 [Example C108, 3-{3-[(R)-cyclobutyl(4-methyl-4H-1,2,4-triazol-3-yl)methyl]phenyl}-7-{[(3R)-3-methylpiperidin-1-yl]methyl}-5-(trifluoromethyl)-1H-pyrazolo[3,4-c]pyridine] | 5.5 | 630 | 148 | 79.4
3 | Cn1cnnc1[C@@H](c1cccc(-c2n[nH]c3c(CN4CC[C@@H](F)C4)nc(C(F)(F)F)cc23)c1)C1CCC1 [Example C109, 3-{3-[(R)-cyclobutyl(4-methyl-4H-1,2,4-triazol-3-yl)methyl]phenyl}-7-{[(3R)-3-fluoropyrrolidin-1-yl]methyl}-5-(trifluoromethyl)-1H-pyrazolo[3,4-c]pyridine] | 8.8 | 442 | 174 | 48.8
4 | Cn1cnnc1[C@@H](c1cccc(-c2n[nH]c3c(CN4CC[C@H](F)C4)nc(C(F)(F)F)cc23)c1)C1CCC1 [Example C110, 3-{3-[(R)-cyclobutyl(4-methyl-4H-1,2,4-triazol-3-yl)methyl]phenyl}-7-{[(3S)-3-fluoropyrrolidin-1-yl]methyl}-5-(trifluoromethyl)-1H-pyrazolo[3,4-c]pyridine] | 6.4 | 464 | 300 | 50
5 | Cn1cnnc1[C@@H](c1cccc(-c2n[nH]c3c(CN4C[C@@H](F)[C@H](F)C4)nc(C(F)(F)F)cc23)c1)C1CCC1 [Example C111, 3-{3-[(R)-cyclobutyl(4-methyl-4H-1,2,4-triazol-3-yl)methyl]phenyl}-7-{[(3R,4R)-3,4-difluoropyrrolidin-1-yl]methyl}-5-(trifluoromethyl)-1H-pyrazolo[3,4-c]pyridine] | 3.3 | 313 | 282 | 26.9
6 | Cn1cnnc1[C@@H](c1cccc(-c2n[nH]c3c(CN4CCNC(=O)C4)nc(C(F)(F)F)cc23)c1)C1CCC1 [Example C112, 4-{[3-{3-[(R)-cyclobutyl(4-methyl-4H-1,2,4-triazol-3-yl)methyl]phenyl}-5-(trifluoromethyl)-1H-pyrazolo[3,4-c]pyridin-7-yl]methyl}piperazin-2-one] | 3 | 114 | 82.1 | 15.4
7 | C[C@@H]1CN(Cc2nc(C(F)(F)F)cc3c(-c4cccc([C@H](c5nncn5C)C5CCC5)c4)n[nH]c23)CCO1 [Example C113, 3-{3-[(R)-cyclobutyl(4-methyl-4H-1,2,4-triazol-3-yl)methyl]phenyl}-7-{[(2R)-2-methylmorpholin-4-yl]methyl}-5-(trifluoromethyl)-1H-pyrazolo[3,4-c]pyridine] | 4.8 | 233 | 83.6 | 27.1
8 | Cn1cnnc1[C@@H](c1cccc(-c2n[nH]c3c(CN4CCC(F)(F)C4)nc(C(F)(F)F)cc23)c1)C1CCC1 [Example C114, 3-{3-[(R)-cyclobutyl(4-methyl-4H-1,2,4-triazol-3-yl)methyl]phenyl}-7-[(3,3-difluoropyrrolidin-1-yl)methyl]-5-(trifluoromethyl)-1H-pyrazolo[3,4-c]pyridine] | 10.8 | 1070 | 278 | 87.9
9 | Cn1cnnc1[C@@H](c1cccc(-c2n[nH]c3c(CN4CC(F)(F)C4)nc(C(F)(F)F)cc23)c1)C1CCC1 [Example C115, 3-{3-[(R)-cyclobutyl(4-methyl-4H-1,2,4-triazol-3-yl)methyl]phenyl}-7-[(3,3-difluoroazetidin-1-yl)methyl]-5-(trifluoromethyl)-1H-pyrazolo[3,4-c]pyridine] | 9.2 | 1020 | 195 | 73.8
10 | Cn1cnnc1[C@@H](c1cccc(-c2n[nH]c3c(CN[C@H]4C[C@H](O)C4)nc(C(F)(F)F)cc23)c1)C1CCC1 [Example C119, (1r,3r)-3-({[3-{3-[(R)-cyclobutyl(4-methyl-4H-1,2,4-triazol-3-yl)methyl]phenyl}-5-(trifluoromethyl)-1H-pyrazolo[3,4-c]pyridin-7-yl]methyl}amino)cyclobutan-1-ol] | 21.9 | 220 | 254 | 28.7
11 | Cn1cnnc1[C@@H](c1cccc(-c2n[nH]c3c(CN[C@H]4C[C@@H](O)C4)nc(C(F)(F)F)cc23)c1)C1CCC1 [Example C120, (1s,3s)-3-({[3-{3-[(R)-cyclobutyl(4-methyl-4H-1,2,4-triazol-3-yl)methyl]phenyl}-5-(trifluoromethyl)-1H-pyrazolo[3,4-c]pyridin-7-yl]methyl}amino)cyclobutan-1-ol] | 11.1 | 105 | 156 | 13.6
12 | Cn1cnnc1[C@@H](c1cccc(-c2n[nH]c3c(CN[C@@H]4CCC[C@H]4O)nc(C(F)(F)F)cc23)c1)C1CCC1 [Example C121, (1R,2R)-2-({[3-{3-[(R)-cyclobutyl(4-methyl-4H-1,2,4-triazol-3-yl)methyl]phenyl}-5-(trifluoromethyl)-1H-pyrazolo[3,4-c]pyridin-7-yl]methyl}amino)cyclopentan-1-ol] | 3.3 | 111 | 113 | 18.9
13 | Cn1cnnc1[C@@H](c1cccc(-c2n[nH]c3c(CN[C@H]4CCC[C@H]4O)nc(C(F)(F)F)cc23)c1)C1CCC1 [Example C122, (1R,2S)-2-({[3-{3-[(R)-cyclobutyl(4-methyl-4H-1,2,4-triazol-3-yl)methyl]phenyl}-5-(trifluoromethyl)-1H-pyrazolo[3,4-c]pyridin-7-yl]methyl}amino)cyclopentan-1-ol] | 5.5 | 294 | 146 | 29.2
14 | Cn1cnnc1[C@@H](c1cccc(-c2n[nH]c3c(CN[C@@H]4CC[C@H](O)C4)nc(C(F)(F)F)cc23)c1)C1CCC1 [Example D34] | 1.8 | 59.9 | 101 | 6.5
15 | Cn1cnnc1[C@@H](c1cccc(-c2n[nH]c3c(CN[C@@H]4CC[C@@H](O)C4)nc(C(F)(F)F)cc23)c1)C1CCC1 [Example D35] | 4.4 | 100 | 152 | 12.9
16 | CC(C)NCc1nc(C(F)(F)F)cc2c(-c3cccc([C@H](c4nncn4C)C4CCC4)c3)n[nH]c12 [Example D80] | 9.5 | 181 | 306 | 23
17 | CCNCc1nc(C(F)(F)F)cc2c(-c3cccc([C@H](c4nncn4C)C4CCC4)c3)n[nH]c12 [Example D81] | 5.6 | 191 | 206 | 25.7
18 | CN(C)Cc1nc(C(F)(F)F)cc2c(-c3cccc([C@H](c4nncn4C)C4CCC4)c3)n[nH]c12 [Example D82] | 8.7 | 258 | 213 | 32.5
19 | Cn1cnnc1[C@@H](c1cccc(-c2n[nH]c3c(CN4CCC4)nc(C(F)(F)F)cc23)c1)C1CCC1 [Example D83] | 7.6 | 198 | 177 | 27.7
20 | Cn1cnnc1[C@@H](c1cccc(-c2n[nH]c3c(CN4CCNCC4)nc(C(F)(F)F)cc23)c1)C1CCC1 [Example D84] | 5.6 | 144 | 148 | 21.9
21 | Cn1cnnc1[C@@H](c1cccc(-c2n[nH]c3c(CNC4CCOCC4)nc(C(F)(F)F)cc23)c1)C1CCC1 [Example D85] | 6.9 | 237 | 241 | 23.4
22 | Cn1cnnc1[C@@H](c1cccc(-c2n[nH]c3c(CN[C@H]4CC[C@H](O)C4)nc(C(F)(F)F)cc23)c1)C1CCC1 [Example D86] | 6.4 | 106 | 161 | 16.1
